Laboratory results from the NIST ThermoML archive (doi:10.1021/acs.jced.8b00132).
Where “and” joins values, the source holds several entries; their conditions need not be identical. Equal values may be shown once.

Details: transient hot wire

O=C(C(F)(F)C(F)(F)F)C(F)(C(F)(F)F)C(F)(F)F [dodecafluoro-2-methylpentan-3-one]
Details	thermal conductivity
301.59 K, 15869 kPa, Liquid	0.06313 W/m/K
301.6 K, 48023 kPa, Liquid	0.07341 W/m/K
301.6 K, 48035 kPa, Liquid	0.07339 W/m/K
301.61 K, 9935 kPa, Liquid	0.06132 W/m/K
301.61 K, 9939 kPa, Liquid	0.0613 W/m/K
301.63 K, 185 kPa, Liquid	0.05695 W/m/K
301.63 K, 186 kPa, Liquid	0.05695 W/m/K
301.65 K, 38555 kPa, Liquid	0.07081 W/m/K
301.65 K, 38556 kPa, Liquid	0.07081 W/m/K
301.66 K, 4510 kPa, Liquid	0.05903 W/m/K
301.67 K, 181 kPa, Liquid	0.05696 W/m/K and 0.05695 W/m/K
301.67 K, 4513 kPa, Liquid	0.05926 W/m/K
301.68 K, 68591 kPa, Liquid	0.07706 W/m/K
301.68 K, 68604 kPa, Liquid	0.07747 W/m/K
301.69 K, 29956 kPa, Liquid	0.06826 W/m/K
301.69 K, 29958 kPa, Liquid	0.06828 W/m/K
301.69 K, 68130 kPa, Liquid	0.07843 W/m/K
301.7 K, 58476 kPa, Liquid	0.07534 W/m/K
301.7 K, 68201 kPa, Liquid	0.07832 W/m/K
301.71 K, 22368 kPa, Liquid	0.06584 W/m/K and 0.06583 W/m/K
301.71 K, 48170 kPa, Liquid	0.07234 W/m/K
301.71 K, 58480 kPa, Liquid	0.07563 W/m/K
301.72 K, 15988 kPa, Liquid	0.06294 W/m/K
301.72 K, 15989 kPa, Liquid	0.0629 W/m/K
301.72 K, 48184 kPa, Liquid	0.07274 W/m/K
301.73 K, 38646 kPa, Liquid	0.06956 W/m/K
301.73 K, 38651 kPa, Liquid	0.0696 W/m/K
301.75 K, 9736 kPa, Liquid	0.06053 W/m/K
301.75 K, 59377 kPa, Liquid	0.07624 W/m/K
301.75 K, 59380 kPa, Liquid	0.07624 W/m/K
301.75 K, 68800 kPa, Liquid	0.07711 W/m/K
301.76 K, 9735 kPa, Liquid	0.06062 W/m/K
301.76 K, 15639 kPa, Liquid	0.06344 W/m/K
301.76 K, 29978 kPa, Liquid	0.06731 W/m/K
301.76 K, 68808 kPa, Liquid	0.07639 W/m/K
301.77 K, 15644 kPa, Liquid	0.06346 W/m/K
301.78 K, 121 kPa, Liquid	0.05702 W/m/K and 0.05701 W/m/K
301.79 K, 4434 kPa, Liquid	0.05801 W/m/K
301.79 K, 4440 kPa, Liquid	0.05822 W/m/K
301.79 K, 22438 kPa, Liquid	0.06507 W/m/K
301.79 K, 22452 kPa, Liquid	0.06502 W/m/K
301.82 K, 102 kPa, Liquid	0.05674 W/m/K
301.82 K, 48012 kPa, Liquid	0.07336 W/m/K
301.82 K, 48021 kPa, Liquid	0.07338 W/m/K
301.83 K, 95 kPa, Liquid	0.05685 W/m/K
301.85 K, 9941 kPa, Liquid	0.06128 W/m/K
301.85 K, 9948 kPa, Liquid	0.06126 W/m/K
301.87 K, 38549 kPa, Liquid	0.07078 W/m/K
301.87 K, 38555 kPa, Liquid	0.07047 W/m/K
301.88 K, 34 kPa, Gas	0.01211 W/m/K
301.88 K, 35 kPa, Gas	0.01203 W/m/K
301.9 K, 185 kPa, Liquid	0.05689 W/m/K
301.91 K, 185 kPa, Liquid	0.05664 W/m/K
301.91 K, 4509 kPa, Liquid	0.059 W/m/K
301.91 K, 29959 kPa, Liquid	0.06823 W/m/K
301.91 K, 67990 kPa, Liquid	0.07824 W/m/K
301.91 K, 68063 kPa, Liquid	0.07829 W/m/K
301.92 K, 29958 kPa, Liquid	0.06824 W/m/K
301.93 K, 181 kPa, Liquid	0.05689 W/m/K and 0.05687 W/m/K
301.94 K, 4507 kPa, Liquid	0.05898 W/m/K
301.95 K, 22372 kPa, Liquid	0.06576 W/m/K
301.95 K, 22377 kPa, Liquid	0.06549 W/m/K
301.97 K, 59371 kPa, Liquid	0.07623 W/m/K
301.97 K, 59377 kPa, Liquid	0.07622 W/m/K
302.01 K, 15644 kPa, Liquid	0.06317 W/m/K
302.01 K, 15646 kPa, Liquid	0.06342 W/m/K
302.03 K, 121 kPa, Liquid	0.05696 W/m/K
302.04 K, 15871 kPa, Liquid	0.0631 W/m/K
302.04 K, 15874 kPa, Liquid	0.0632 W/m/K
302.04 K, 48005 kPa, Liquid	0.07334 W/m/K
302.05 K, 48000 kPa, Liquid	0.07334 W/m/K
302.09 K, 9944 kPa, Liquid	0.06121 W/m/K
302.09 K, 68569 kPa, Liquid	0.07801 W/m/K
302.09 K, 68583 kPa, Liquid	0.07807 W/m/K
302.1 K, 9951 kPa, Liquid	0.06119 W/m/K
302.1 K, 38544 kPa, Liquid	0.07073 W/m/K
302.11 K, 38546 kPa, Liquid	0.07074 W/m/K
302.13 K, 58450 kPa, Liquid	0.07511 W/m/K
302.13 K, 58453 kPa, Liquid	0.07504 W/m/K
302.15 K, 15982 kPa, Liquid	0.0631 W/m/K
302.15 K, 29954 kPa, Liquid	0.06819 W/m/K and 0.0682 W/m/K
302.15 K, 48164 kPa, Liquid	0.07319 W/m/K
302.16 K, 15975 kPa, Liquid	0.06301 W/m/K
302.16 K, 48161 kPa, Liquid	0.07327 W/m/K
